# According to ChEMBL document CHEMBL1149540, “Synthesis and in vitro protozoocidal activity of diazabicyclic benzotropolone derivatives” (Bioorg Med Chem Lett, 2007):
# What was measured:
# [1] = Cytotoxicity against KB cells; assay type: cell-based; details: human, read-out: ED50 (the source's name)
# [2] = tested on: Leishmania donovani; assay: Inhibition of Leishmania donovani; assay type: functional, organism-based
# [3] = tested on: Trypanosoma cruzi; assay: Inhibition of Trypanosoma cruzi; assay type: functional, organism-based
# [4] = Therapeutic index, ratio of IC50 for Trypanosoma cruzi to ED50 for KB cells; assay type: cell-based; details: human, read-out: TI
# [5] = Therapeutic index, ratio of IC50 for Leishmania donovani to ED50 for KB cells; assay type: cell-based; details: human, read-out: TI
IC50 [2] [µM],IC50 [3] [µM],Structure (SMILES),CC50 [1] [µg/mL],selectivity ratio [4],selectivity ratio [5]
> 71,> 71,COC(=O)N1[C@@H]2C=C[C@@](OC)(C(=O)c3c2cc(OC)c(OC)c3OC)N1C(=O)OC,> 300,–,–
> 59.2,42.3,CCCOc1c(OC)c(OC)cc2c1C(=O)[C@]1(OC)C=C[C@H]2N(C(=O)OC(C)C)N1C(=O)OC(C)C,299,–,–
> 62.7,> 62.7,COc1cc2c(c(OC)c1OC)C(=O)[C@]1(OC)C=C[C@H]2N(C(=O)OC(C)C)N1C(=O)OC(C)C,> 300,–,–
> 51.3,9.8,COc1ccc(COc2c(OC)c(OC)cc3c2C(=O)[C@]2(OC)C=C[C@H]3N(C(=O)OC(C)C)N2C(=O)OC(C)C)cc1,47.9,–,–
> 58.1,> 58.1,COC(=O)N1[C@@H]2C=C[C@@](OC)(C(=O)c3c2cc(OC)c(OC)c3OCc2ccc(F)cc2)N1C(=O)OC,56.6,–,–
> 68.8,> 68.8,CCOc1c(OC)c(OC)cc2c1C(=O)[C@]1(OC)C=C[C@H]2N(C(=O)OC)N1C(=O)OC,> 300,–,–
47.4,< 1.9,COc1cc2c(c(OCc3ccc(Cl)cc3)c1OC)C(=O)[C@]1(OC)C=C[C@H]2N(C(=O)OC(C)C)N1C(=O)OC(C)C,42,37.6,–
8.6,54.1,CCOC(=O)N1[C@@H]2C=C[C@@](OC)(C(=O)c3c2cc(OC)c(OC)c3OCc2ccccc2F)N1C(=O)OCC,99.7,–,21.3
> 66.6,> 66.6,CCCOc1c(OC)c(OC)cc2c1C(=O)[C@]1(OC)C=C[C@H]2N(C(=O)OC)N1C(=O)OC,> 300,–,–
> 73.5,> 73.5,COC(=O)N1[C@@H]2C=C[C@@](OC)(C(=O)c3c2cc(OC)c(OC)c3O)N1C(=O)OC,> 300,–,–
> 52.4,9.5,COc1cc2c(c(OCc3ccccc3F)c1OC)C(=O)[C@]1(OC)C=C[C@H]2N(C(=O)OC(C)C)N1C(=O)OC(C)C,109,–,–
> 57,54.1,CCOC(=O)N1[C@@H]2C=C[C@@](OC)(C(=O)c3c2cc(OC)c(OC)c3OCc2ccccc2)N1C(=O)OCC,215,–,–
> 57.6,23.4,CCCCOc1c(OC)c(OC)cc2c1C(=O)[C@]1(OC)C=C[C@H]2N(C(=O)OC(C)C)N1C(=O)OC(C)C,22.1,–,–
> 53.5,83.8,CCOC(=O)N1[C@@H]2C=C[C@@](OC)(C(=O)c3c2cc(OC)c(OC)c3OCc2ccc(Cl)cc2)N1C(=O)OCC,99.9,–,–
> 62.7,> 62.7,CCCOc1c(OC)c(OC)cc2c1C(=O)[C@]1(OC)C=C[C@H]2N(C(=O)OCC)N1C(=O)OCC,> 300,–,–
> 64.6,57.4,CCCCOc1c(OC)c(OC)cc2c1C(=O)[C@]1(OC)C=C[C@H]2N(C(=O)OC)N1C(=O)OC,> 300,–,–
> 60.9,> 60.9,CCOc1c(OC)c(OC)cc2c1C(=O)[C@]1(OC)C=C[C@H]2N(C(=O)OC(C)C)N1C(=O)OC(C)C,> 300,–,–
> 60.9,> 60.9,CCCCOc1c(OC)c(OC)cc2c1C(=O)[C@]1(OC)C=C[C@H]2N(C(=O)OCC)N1C(=O)OCC,76,–,–
> 60.2,> 60.2,COC(=O)N1[C@@H]2C=C[C@@](OC)(C(=O)c3c2cc(OC)c(OC)c3OCc2ccccc2)N1C(=O)OC,> 300,–,–
9.9,> 53.9,CCOC(=O)N1[C@@H]2C=C[C@@](OC)(C(=O)c3c2cc(OC)c(OC)c3OCc2ccc(OC)cc2)N1C(=O)OCC,63.1,–,–
> 58.1,> 58.1,COC(=O)N1[C@@H]2C=C[C@@](OC)(C(=O)c3c2cc(OC)c(OC)c3OCc2ccccc2F)N1C(=O)OC,137,–,–
> 56.8,> 56.8,COC(=O)N1[C@@H]2C=C[C@@](OC)(C(=O)c3c2cc(OC)c(OC)c3OCc2ccc(OC)cc2)N1C(=O)OC,> 300,–,–
> 55.1,51.3,CCOC(=O)N1[C@@H]2C=C[C@@](OC)(C(=O)c3c2cc(OC)c(OC)c3OCc2ccc(F)cc2)N1C(=O)OCC,51.8,–,–
> 56.3,50.9,COC(=O)N1[C@@H]2C=C[C@@](OC)(C(=O)c3c2cc(OC)c(OC)c3OCc2ccc(Cl)cc2)N1C(=O)OC,55.9,–,–
> 54.1,12.1,COc1cc2c(c(OCc3ccccc3)c1OC)C(=O)[C@]1(OC)C=C[C@H]2N(C(=O)OC(C)C)N1C(=O)OC(C)C,94,–,–
> 64.6,> 64.6,CCOC(=O)N1[C@@H]2C=C[C@@](OC)(C(=O)c3c2cc(OC)c(OC)c3OCC)N1C(=O)OCC,> 300,–,–
> 52.4,18,COc1cc2c(c(OCc3ccc(F)cc3)c1OC)C(=O)[C@]1(OC)C=C[C@H]2N(C(=O)OC(C)C)N1C(=O)OC(C)C,> 300,–,–
> 64.6,> 64.6,COc1cc2c(c(O)c1OC)C(=O)[C@]1(OC)C=C[C@H]2N(C(=O)OC(C)C)N1C(=O)OC(C)C,> 300,–,–

Structure (SMILES),IC50 [2] [µM],IC50 [3] [µM],CC50 [1] [µg/mL],selectivity ratio [4],selectivity ratio [5]
O=C(Cn1ccnc1[N+](=O)[O-])NCc1ccccc1 [BENZNIDAZOLE],–,8.7,–,–,–
